Experimental data reported in patent US4107424A, “1-N-[(S)-α-hydroxy-ω-aminoacyl] derivatives of 3',4'-dideoxykanamycin B and 3'-deoxykanamycin B antibiotics” (Zaidan Hojin Biseibutsu Kagaku Kenkyu Kai, priority 1972, dated 1978).
Converted amounts (≈) assume the structure as drawn. Read-outs that look alike come from different tables or passages of the source.

Key:
mice = test: Acute intravenous toxicity (LD50) in mice; settings: in words
in vivo = settings: mouse, iv
[1] = test system: gram-positive and gram-negative bacteria; test: Antibacterial activity (in words); type: cell-based; settings: for antibacterial activity compared with parent or reference substance: sensitive (and resistant) bacteria; for antibacterial activity: various gram-positive and gram-negative bacteria, including resistant strains
Protocol: (§1) [α]D^22 + 38°, (c 0.85, water).

[2] = test system: Pseudomonas aeruginosa No.12; test: Minimal inhibitory concentration, agar dilution streak method; type: cell-based; settings: nutrient agar, 37° C, 18 hours
Protocol: (§2) *Agar Agar dilution streak method (nutrient agar, 37° C, 18 hours)
(§3) *Agar dilution streak method (nutrient agar, 37° C, 18 hours).

[3] = test system: Escherichia coli K-12 ML 1629; test: as above; type: cell-based; settings: K12ML1629, nutrient agar, 37° C, 18 hours
Protocol: as §2, §3

[4] = test system: Pseudomonas aeruginosa A 3; test: as above; type: cell-based; settings: A3, nutrient agar, 37° C, 18 hours
Protocol: as §2, §3

[5] = test system: Pseudomonas aeruginosa GN 315; test: as above; type: cell-based; settings: GN315, nutrient agar, 37° C, 18 hours
Protocol: as §2, §3

[6] = test system: Staphylococcus aureus FDA 209P; test: as above; type: cell-based; settings: FDA209P, nutrient agar, 37° C, 18 hours
Protocol: as §2, §3

[7] = test system: Escherichia coli K-12 W 677; test: as above; type: cell-based; settings: K12W677, nutrient agar, 37° C, 18 hours
Protocol: as §2, §3

[8] = test system: Escherichia coli K-12 JR 66/W 677; test: as above; type: cell-based; settings: Escherichia coli, 18 h
Protocol: as §2, §3

[9] = test system: Escherichia coli K-12 LA 290 R 55; test: as above; type: cell-based; settings: 18 h
Protocol: as §2, §3

[10] = test system: Escherichia coli K-12 ML 1410; test: as above; type: cell-based; settings: K12ML1410, nutrient agar, 37° C, 18 hours
Protocol: as §2, §3

[11] = test system: Pseudomonas aeruginosa 99; test: as above; type: cell-based; settings: nutrient agar, 37° C, 18 hours
Protocol: as §1, §2, §3

[12] = test system: Escherichia coli K-12 ML 1630; test: as above; type: cell-based; settings: K12ML1630, nutrient agar, 37° C, 18 hours
Protocol: as §2, §3

[13] = test system: Escherichia coli K-12 LA 290 R 56; test: as above; type: cell-based; settings: 18 h
Protocol: as §2, §3

Escherichia coli K-12 = test: as above; type: cell-based; settings: K12, nutrient agar, 37° C, 18 hours
Protocol: as §2, §3

[14] = test system: Escherichia coli K-12 ML 1410 R 81; test: as above; type: cell-based; settings: 18 h
Protocol: as §2, §3

[15] = test system: Pseudomonas aeruginosa TI-13; test: as above; type: cell-based; settings: TI13, nutrient agar, 37° C, 18 hours
Protocol: as §2, §3

[16] = test system: Escherichia coli K-12 LA 290 R 64; test: as above; type: cell-based; settings: nutrient agar, 37° C, 18 hours
Protocol: as §2, §3

[17] = test system: Mycobacterium smegmatis ATCC 607; test: as above; type: cell-based; settings: Mycolicibacterium smegmatis, ATCC607; nutrient agar, 37° C, 48 hours; read-out: Minimal inhibitory concentration
Proteus rettgeri GN 466 = test: as above; type: cell-based; settings: Providencia rettgeri, GN466; nutrient agar, 37° C, 18 hours
Protocol: as §1, §2, §3

[18] = test system: Klebsiella pneumoniae PCI 602; test: as above; type: cell-based; settings: PCI602, nutrient agar, 37° C, 18 hours
Protocol: as §1, §2, §3

[19] = test system: Escherichia coli J 5 R 11-2; test: as above; type: cell-based; settings: J5R112, 18 h, read-out: Minimal inhibitory concentration
Protocol: as §1, §2, §3

Proteus rettgeri GN 311 = test: as above; type: cell-based; settings: Providencia rettgeri, GN311; nutrient agar, 37° C, 18 hours
Protocol: as §1, §2, §3

[20] = test system: Bacillus subtilis NRRL B-558; test: as above; type: cell-based; settings: NRRLB558, nutrient agar, 37° C, 18 hours
Protocol: as §1, §2, §3

Escherichia coli NIHJ = test: as above; type: cell-based; settings: nutrient agar, 37° C, 18 hours
Protocol: as §1, §2, §3

Sarcina lutea PCI 1001 = test: as above; type: cell-based; settings: Micrococcus luteus, PCI1001; nutrient agar, 37° C, 18 hours; read-out: Minimal inhibitory concentration
Protocol: as §1, §2, §3

[21] = test system: Escherichia coli K-12 R-5; test: as above; type: cell-based; settings: K12R5, nutrient agar, 37° C, 18 hours
Protocol: as §1, §2, §3

[22] = test system: Escherichia coli K-12 C 600 R 135; test: as above; type: cell-based; settings: 18 h, read-out: Minimal inhibitory concentration
Protocol: as §1, §2, §3

Salmonella typhosa T-63 = test: as above; type: cell-based; settings: Salmonella enterica, nutrient agar, 37° C, 18 hours
Protocol: as §1, §2, §3

[23] = test system: Klebsiella pneumoniae type 22 #3038; test: as above; type: cell-based; settings: Klebsiella pneumoniae; nutrient agar, 37° C, 18 hours
Protocol: as §2, §3

[24] = read-out: minimum inhibitory concentrations
[25] = drug-resistant strain, read-out: minimum inhibitory concentrations
[26] = read-out: Minimal inhibitory concentration

In the case of `NCC[C@H](O)C(=O)N[C@@H]1C[C@H](N)[C@@H](O[C@H]2O[C@H](CN)[C@@H](O)C[C@H]2N)[C@H](O)[C@H]1O` [AHB-deoxyneamine, 1-N-[(S)-4-amino-2-hydroxybutyryl]-3'-deoxyneamine], the toxicity (mice) is reported as “toxicity as low as that of their parent substances”, the LD50 (in vivo) is reported as over 100 mg/kg and the “antibacterial activity compared with parent or reference substance” value [1] is reported as “antibacterial activity as high as that of their parent substances”. The antibacterial activity [1] was “high antibacterial activity against the kanamycin-resistant strains”, the MIC [2, 24] was 6.25 µg/mL (≈ 15.3 µM) and the MIC [3, 25] was 6.25 µg/mL (≈ 15.3 µM). For the same molecule, the MIC [4, 24] was 6.25 µg/mL (≈ 15.3 µM), the MIC [5, 25] was over 100 µg/mL and the MIC [6, 24] was 3.12 µg/mL (≈ 7.66 µM). The MIC [7, 24] was 6.25 µg/mL (≈ 15.3 µM), the MIC [8, 24] was 6.25 µg/mL (≈ 15.3 µM) and the MIC [9, 24] was 6.25 µg/mL (≈ 15.3 µM). The MIC [10, 24] was 6.25 µg/mL (≈ 15.3 µM).

With `NCC[C@H](O)C(=O)N[C@@H]1C[C@H](N)[C@@H](O[C@H]2O[C@H](CN)[C@@H](O)C[C@H]2N)[C@H](O[C@@H]2O[C@H](CO)[C@@H](O)[C@H]2O)[C@H]1O` [AHB-deoxyribostamycin, 1-N-[(S)-4-amino-2-hydroxybutyryl]-3'-deoxyribostamycin] the toxicity (mice) was “toxicity as low as that of their parent substances”, the LD50 (in vivo) was over 100 mg/kg and the “antibacterial activity compared with parent or reference substance” value [1] was “antibacterial activity as high as that of their parent substances”. The antibacterial activity [1] was “high antibacterial activity against the kanamycin-resistant strains”, the MIC [2, 24] was 3.12 µg/mL (≈ 5.78 µM) and the MIC [3, 25] was 1.56 µg/mL (≈ 2.89 µM). It also gave an MIC [4, 24] of 1.56 µg/mL (≈ 2.89 µM), an MIC [5, 25] of over 100 µg/mL and an MIC [6, 24] of 1.56 µg/mL (≈ 2.89 µM). The MIC [7, 24] was 0.78 µg/mL (≈ 1.45 µM), the MIC [8, 24] was 3.12 µg/mL (≈ 5.78 µM) and the MIC [9, 24] was 1.56 µg/mL (≈ 2.89 µM). The MIC [10, 24] was 0.78 µg/mL (≈ 1.45 µM).

In the case of `NCC[C@H](O)C(=O)N[C@@H]1C[C@H](N)[C@@H](O[C@H]2O[C@H](CN)CC[C@H]2N)[C@H](O)[C@H]1O[C@H]1O[C@H](CO)[C@@H](O)[C@H](N)[C@H]1O` [AHB-dideoxykanamycin B, 1-N-[(S)-4-amino-2-hydroxy-n-butyryl]-3',4'-dideoxykanamycin B], the toxicity (mice) is reported as “toxicity as low as that of kanamycin”, the LD50 (in vivo) is reported as over 150 mg/kg and the MIC [11, 24] is reported as 12.5 µg/mL (≈ 22.6 µM). The “antibacterial activity compared with parent or reference substance” value [1] was “stronger antibacterial activity than those of kanamycin A and 3',4'-dideoxykanamycin B”, the antibacterial activity [1] was “high antibacterial activity against drug-resistant strains such as Staphylococcus aureus, Escherichia coli and Pseudomonas aeruginosa strains which are resistant to kanamycin and DKB” and the MIC [2, 24] was 1.56 µg/mL (≈ 2.82 µM). For the same molecule, the MIC [12, 24] was 0.78 µg/mL (≈ 1.41 µM), the MIC [13, 24] was 0.39 µg/mL (≈ 0.706 µM) and the MIC (Escherichia coli K-12; [24]) was 0.78 µg/mL (≈ 1.41 µM). The MIC [3, 25] was 0.78 µg/mL (≈ 1.41 µM), the MIC [4, 24] was 3.12 µg/mL (≈ 5.65 µM) and the MIC [6, 24] was 0.78 µg/mL (≈ 1.41 µM). For the same molecule, the MIC [7, 24] was 0.39 µg/mL (≈ 0.706 µM), the MIC [8, 24] was 1.56 µg/mL (≈ 2.82 µM) and the MIC [9, 24] was 0.78 µg/mL (≈ 1.41 µM). For the same molecule, the MIC [14, 24] was 1.56 µg/mL (≈ 2.82 µM), the MIC [15, 24] was 3.12 µg/mL (≈ 5.65 µM) and the MIC [16, 24] was 0.78 µg/mL (≈ 1.41 µM). For the same molecule, the MIC [10, 24] was 0.78 µg/mL (≈ 1.41 µM).

With `CNC[C@H]1O[C@H](O[C@H]2[C@H](O)[C@@H](O[C@H]3O[C@H](CO)[C@@H](O)[C@H](N)[C@H]3O)[C@H](NC(=O)[C@@H](O)CCN)C[C@@H]2N)[C@H](N)C[C@@H]1O` [AHB-methyldeoxykanamycin B, 1-N-[(S)-4-amino-2-hydroxybutyryl]-3'-deoxy-6'-N-methylkanamycin B] the toxicity (mice) was “toxicity as low as that of their parent substances”, the LD50 (in vivo) was over 100 mg/kg and the “antibacterial activity compared with parent or reference substance” value [1] was “antibacterial activity as high as that of their parent substances”. For the same molecule, the antibacterial activity [1] was “high antibacterial activity against the kanamycin-resistant strains”, the MIC [2, 24] was 0.78 µg/mL (≈ 1.34 µM) and the MIC [3, 25] was 0.78 µg/mL (≈ 1.34 µM). The MIC [4, 24] was 0.78 µg/mL (≈ 1.34 µM), the MIC [5, 25] was 6.25 µg/mL (≈ 10.7 µM) and the MIC [6, 24] was 0.78 µg/mL (≈ 1.34 µM). The MIC [7, 24] was 3.12 µg/mL (≈ 5.35 µM), the MIC [8, 24] was 3.12 µg/mL (≈ 5.35 µM) and the MIC [9, 24] was 0.78 µg/mL (≈ 1.34 µM). For the same molecule, the MIC [10, 24] was 0.78 µg/mL (≈ 1.34 µM).

For `NC[C@H]1O[C@H](O[C@H]2[C@H](O)[C@@H](O)[C@H](N)C[C@@H]2N)[C@H](N)[C@@H](O)[C@@H]1O` [Neamine, neamine], the MIC [17] was 12.5 µg/mL (≈ 38.8 µM), the MIC (Proteus rettgeri GN 466) was 25 µg/mL (≈ 77.6 µM) and the MIC [18] was 12.5 µg/mL (≈ 38.8 µM). For the same molecule, the MIC [19] was over 100 µg/mL, the MIC (Proteus rettgeri GN 311) was 100 µg/mL (≈ 310 µM) and the MIC [20] was 0.78 µg/mL (≈ 2.42 µM). The MIC (Escherichia coli NIHJ) was 12.5 µg/mL (≈ 38.8 µM), the MIC (Sarcina lutea PCI 1001) was over 100 µg/mL and the MIC [21] was over 100 µg/mL. For the same molecule, the MIC [11, 26] was over 100 µg/mL, the MIC [22] was 12.5 µg/mL (≈ 38.8 µM) and the MIC (Salmonella typhosa T-63) was 3.12 µg/mL (≈ 9.68 µM). The MIC [23] was over 100 µg/mL, the MIC [2, 26] was over 100 µg/mL and the MIC [12, 26] was over 100 µg/mL. For the same molecule, the MIC [13, 26] was 12.5 µg/mL (≈ 38.8 µM), the MIC (Escherichia coli K-12; [26]) was 6.25 µg/mL (≈ 19.4 µM) and the MIC [3, 26] was over 100 µg/mL. For the same molecule, the MIC [4, 26] was over 100 µg/mL, the MIC [5, 26] was over 100 µg/mL and the MIC [6, 26] was 6.25 µg/mL (≈ 19.4 µM). It also gave an MIC [7, 26] of 6.25 µg/mL (≈ 19.4 µM), an MIC [8, 26] of over 100 µg/mL and an MIC [9, 26] of 5.25 µg/mL (≈ 16.3 µM). For the same molecule, the MIC [14, 26] was over 100 µg/mL, the MIC [15, 26] was over 100 µg/mL and the MIC [16, 26] was 6.25 µg/mL (≈ 19.4 µM). It also gave an MIC [10, 26] of 12.5 µg/mL (≈ 38.8 µM).
